From paper PMC3617668, “In Vitro Antileishmanial, Trypanocidal, and Mammalian Cell Activities of Diverse N,N′ -Dihetaryl Substituted Diamines and Related Compounds” (Scientia Pharmaceutica, 2012)
“And” between values parts separate entries of the source, which are not always exact repeats. Identical values can stand only once.

Experiments:
[1] = test system: L. (L.) infantum promastigotes; test: In vitro activity on L. (L.) infantum promastigotes, counting viable parasites; format: cell-based, Leishmania (Leishmania) infantum; conditions: for IC50: Leishmania infantum, 72 h, 28 °C, read-out: L. (L) infantum promastigotes IC50 ± SD; for activity on L. (L.) infantum promastigotes, in words: free-living form; for L. (L) infantum promastigotes SI: selectivity index CC50/IC50
Description: (§1) Epimastigotes of T. cruzi and promastigotes forms of L. […] The inhibition of parasite growth was microscopically determined by counting viable (live) parasites in a haemocytometer using yellow eosin as vital dye; live parasites (uncolored) and dead (orange) were counted. All of the experiments were performed with parasites in their logarithmic phase of growth. […] Negative controls were used without the drug (culture medium alone) in each experiment. […] The data were calculated by linear regression using the software ([…]; GO Business Solution, Guildford, UK). The selectivity index (SI) was calculated dividing CC50/IC50. Each experiment was repeated twice and the values represent the results of one representative experiment. […] The analysis to determine the statistical differences in biological activity was performed using the analysis of variance (ANOVA) and the Bonferroni post-test. We also performed Student's t test for comparison between the two variables, using GraphPad Prism software version 5.03.

T. cruzi epimastigotes = test: In vitro activity on T. cruzi epimastigotes, counting viable parasites; format: cell-based, Trypanosoma cruzi; conditions: for IC50: Trypanosoma cruzi, 72 h, 28 °C, read-out: T. cruzi epimastigotes IC50 ± SD; for activity on T. cruzi epimastigotes, in words: free-living form; for T. cruzi epimastigotes SI: selectivity index CC50/IC50
Description: as §1

[2] = Mammalian cell toxicity, MTT, THP-1 cells; format: cell-based; conditions: human, THP-1 cells transformed into adherent macrophages with PMA, 72 h, MTT; for CC50 at 72 h: read-out: Mammalian cells THP-1 CC50 ± SD
Description: (§2) Vero cells and THP-1 cells transformed into adherent macrophages with PMA in 96 microwell plates where they were treated with compounds (0-350 μM) during 72 h at 37 °C, 5% CO2-95% air mixture. The viability of the cells was evaluated by using the tetrazolium-dye (MTT) colorimetric method. After incubation of the cells with the MTT (5mg/mL) reagent for 4 hours, DMSO was added. The samples were read using an ELISA plate reader at a wavelength of 580 nm. The amount of color produced is directly proportional to the number of viable cells. The percentage of cytotoxicity was calculated by the equation: cytotoxicity (%) = (OD control group-OD treatment group)/OD control group × 100 [31]. […] The data were calculated by linear regression using the software ([…]; GO Business Solution, Guildford, UK). The selectivity index (SI) was calculated dividing CC50/IC50. Each experiment was repeated twice and the values represent the results of one representative experiment. […] The analysis to determine the statistical differences in biological activity was performed using the analysis of variance (ANOVA) and the Bonferroni post-test. We also performed Student's t test for comparison between the two variables, using GraphPad Prism software version 5.03.

[3] = Mammalian cell toxicity, MTT, Vero cells; format: cell-based; conditions: African green monkey, Vero cells, 72 h, MTT; for CC50 at 72 h: read-out: Mammalian cells Vero CC50 ± SD
Description: as §2

[4] = test system: L. (L.) infantum intracellular amastigotes; test: Intracellular amastigotes of L. (L.) infantum infecting THP-1 macrophages; format: cell-based, Leishmania (Leishmania) infantum; conditions: for IC90 / IC50: Leishmania infantum, THP-1 macrophages, 72 h; for IC50: 48.58% cells infected before treatment; for L. (L.) infantum intracellular amastigotes SI: selectivity index CC50/IC50
Description: (§3) For the amastigotes assays, adherent Vero cells or THP-1 macrophages (after transformation with 10 ng/mL PMA) were infected with tissue-derived trypomastigotes or stationary phase promastigotes, respectively, at a ratio of 10:1 and maintained in a 5% CO2-95% air mixture at 37 °C. After 24 h, infected cultures with >50% of infected cells were incubated with the compounds (from 3–300 μM) in a three-fold dilution series for 72 h. Drug activity was determined from the % of infected cells in treated and untreated cultures in fixed methanol and Giemsa stained preparations. Parasites’ assays were performed twice and each tested concentration was tested in triplicate.
(§4) Negative controls were used without the drug (culture medium alone) in each experiment.
(§5) The data were calculated by linear regression using the software (Msxlfit; GO Business Solution, Guildford, UK). The selectivity index (SI) was calculated dividing CC50/IC50. Each experiment was repeated twice and the values represent the results of one representative experiment. […] The analysis to determine the statistical differences in biological activity was performed using the analysis of variance (ANOVA) and the Bonferroni post-test. We also performed Student’s t test for comparison between the two variables, using GraphPad Prism software version 5.03. P values <0.05 were considered to be statistically significant.

[5] = test system: L.(V.) panamensis intracellular amastigotes; test: Intracellular amastigotes of L. (V.) panamensis in THP-1 macrophages; format: cell-based, Leishmania (Viannia) panamensis; conditions: for IC90 / IC50: THP-1 macrophages, 72 h; for IC50: 78.3% cells infected before treatment; for L.(V.) panamensis intracellular amastigotes SI: selectivity index CC50/IC50
Description: as §3, §4, §5

[6] = test system: L. (L.) amazonensis intracellular amastigotes; test: Intracellular amastigotes of L. (L.) amazonensis in THP-1 macrophages; format: cell-based, Leishmania (Leishmania) amazonensis; conditions: for IC90 / IC50: Leishmania amazonensis, THP-1 macrophages, 72 h; for IC50: 58.6% cells infected before treatment; for L. (L.) amazonensis intracellular amastigotes SI: selectivity index CC50/IC50
Description: as §3, §4, §5

[7] = test system: T. cruzi intracellular amastigotes; test: Intracellular amastigotes of T. cruzi in Vero cells; format: cell-based, Trypanosoma cruzi; conditions: for IC90 / IC50: Trypanosoma cruzi, Vero cells, 72 h; for IC50: 98.1% cells infected before treatment; for T. cruzi intracellular amastigotes SI: selectivity index CC50/IC50
Description: as §3, §4, §5

Vero cells = test: Mammalian cell toxicity, MTT, Vero cells; format: cell-based
Description: as §2

THP-1 cells = test: Mammalian cell toxicity, MTT, THP-1 cells; format: cell-based
Description: as §2

Structure (SMILES) | IC50 [1] [µM] | L. (L) infantum promastigotes SI [1] | IC50 (T. cruzi epimastigotes) [µM] | CC50 at 72 h [2] [µM] | CC50 at 72 h [3] [µM] | T. cruzi epimastigotes SI (T. cruzi epimastigotes) | other results
c1ccc(CNCCNCc2ccccc2)cc1 [5a, N^1,N^2-dibenzylethane-1,2-diamine] | 12.2 ± 2.45 | 19.58 | 2.54 ± 0.08 | 239 ± 17.9 | 75.3 ± 2.57 | – | activity on L. (L.) infantum promastigotes, in words [1]: active; activity on T. cruzi epimastigotes, in words (T. cruzi epimastigotes): active; IC90 [4]: 59.5 ± 2.78 µM; IC50 [4]: 25.4 ± 0.33 µM; L. (L.) infantum intracellular amastigotes SI [4]: 9.39 and 9; activity on intracellular amastigotes of L. panamensis, in words [5]: partially active (partially active with IC50 >25 μM and IC90 <100 μM); IC90 [5]: 88.1 ± 1.85 µM; IC50 [5]: 58.2 ± 3.23 µM; L.(V.) panamensis intracellular amastigotes SI [5]: 5; IC90 [6]: 131 ± 9.14 µM; IC50 [6]: 49.3 ± 4.7 µM; L. (L.) amazonensis intracellular amastigotes SI [6]: 6; IC90 [7]: > 123 µM; IC50 [7]: 131.2 ± 0.92 µM; T. cruzi intracellular amastigotes SI [7]: 0.48
c1ccc(CNCCCNCc2ccccc2)cc1 [5b] | 1.96 ± 0.07 | 86.29 | 5.35 ± 0.27 | 169 ± 29.8 | 343 ± 29.4 | 64.2 | –
COc1ccc(CNCCNCc2ccc(OC)c(O)c2)cc1O [5d] | 40.2 ± 5.21 | >7.48 | 0.88 ± 0.06 | > 300 | > 300 | – | –
COc1ccc(CNCCCCNCc2ccc(OC)c(O)c2)cc1O [5e] | > 250 | – | 1.22 ± 0.08 | 248 | > 250 | – | –
c1cc(CNCCNCc2ccncc2)ccn1 [5h] | 181 ± 1.89 | >2.28 | > 250 | > 413 | 356 ± 37.1 | >0.86 | –
c1ccc(CNCCCCNCc2ccccn2)nc1 [5i] | 28.8 ± 5.14 | >12.82 | > 250 | > 300 | 132 ± 12.3 | >0.35 | –
c1cncc(CNCCCCNCc2cccnc2)c1 [5j] | 44.2 ± 10.5 | >8.36 | > 250 | > 300 | > 300 | >1 | –
O=C1CSC(c2ccccc2)N1CCN1C(=O)CSC1c1ccccc1 (stereo not drawn) [6a] | 136 ± 6.96 | >1.91 | 237 ± 12.1 | > 250 | 171 ± 3.77 | 0.72 | –
O=C1CSC(c2ccccc2)N1CCCCN1C(=O)CSC1c1ccccc1 (stereo not drawn) [6c] | > 250 | >1.0 | > 250 | > 250 | > 250 | >1.01 | –
O=C1CSC(c2ccccn2)N1CCN1C(=O)CSC1c1ccccn1 (stereo not drawn) [6f] | 176 ± 16 | >1.46 | 161 ± 5.58 | > 250 | > 250 | >1.60 | –
O=C1CSC(c2cccnc2)N1CCN1C(=O)CSC1c1cccnc1 (stereo not drawn) [6g] | > 250 | >1.0 | > 250 | > 250 | > 250 | >1.0 | –
O=C1CSC(c2ccncc2)N1CCN1C(=O)CSC1c1ccncc1 (stereo not drawn) [6h] | > 250 | >1.0 | > 250 | > 250 | > 250 | >1.0 | –
O=C1CSC(c2ccccn2)N1CCCCN1C(=O)CSC1c1ccccn1 (stereo not drawn) [6i] | > 250 | >1.0 | > 250 | > 250 | > 250 | >1.0 | –
O=C1CSC(c2cccnc2)N1CCCCN1C(=O)CSC1c1cccnc1 (stereo not drawn) [6j] | > 250 | >1.0 | 235 ± 3.06 | > 250 | 75.4 ± 1.8 | 0.32 | –
O=C1CSC(c2ccncc2)N1CCCCN1C(=O)CSC1c1ccncc1 (stereo not drawn) [6k] | > 250 | >1.0 | > 250 | > 250 | > 250 | >1.0 | –
O=C(CCl)NCCNC(=O)CCl [7a] | 176 ± 19 | >2.66 | 65.9 ± 5.54 | > 300 | 25.7 ± 1.22 | 0.38 | CC90 at 72 h [3]: 49.5 ± 1.87 µM; toxicity on Vero cells, in words (Vero cells): toxic
O=C(CCl)NCCCNC(=O)CCl [7b] | 76.4 ± 1.05 | 2.07 | 1.01 ± 0.13 | 158 ± 4.53 | 32.7 ± 6.56 | 32.35 | –
O=C(CCl)NCCCCNC(=O)CCl [7c] | 132 ± 7.63 | 2.76 | 54.2 ± 1.16 | 366 | 37.1 ± 0.45 | 0.68 | CC90 at 72 h [3]: 77.6 ± 3.15 µM; toxicity on Vero cells, in words (Vero cells): toxic
C[C@@H]1[C@H](O)[C@@H](C)/C=C/C=C/C=C/C=C/C=C/C=C/C=C/[C@H](O[C@@H]2O[C@H](C)[C@@H](O)[C@H](N)[C@@H]2O)C[C@@H]2O[C@](O)(C[C@@H](O)C[C@@H](O)[C@H](O)CC[C@@H](O)C[C@@H](O)CC(=O)O[C@H]1C)C[C@H](O)[C@H]2C(=O)O [AmB, Amphotericin B, reference compound] | 0.014 ± 0.001 | 948.57 | – | 13.3 ± 1.72 | – | – | IC90 [4]: 0.138 ± 0.023 µM; IC50 [4]: 0.045 ± 0.007 µM; L. (L.) infantum intracellular amastigotes SI [4]: 360; IC90 [5]: 0.2 ± 0.002 µM; IC50 [5]: 0.032 ± 0.002 µM; L.(V.) panamensis intracellular amastigotes SI [5]: 420; IC90 [6]: 0.2 ± 0.002 µM; IC50 [6]: 0.082 ± 0.002 µM; L. (L.) amazonensis intracellular amastigotes SI [6]: 616
CC1CS(=O)(=O)CCN1/N=C/c1ccc([N+](=O)[O-])o1 (stereo not drawn) [Nif, Nifurtimox, reference compound] | – | – | 2.71 ± 0.05 | – | 76.5 ± 3.2 | 28.23 | IC90 [7]: 10.2 ± 1.6 µM; IC50 [7]: 2.34 ± 0.83 µM; T. cruzi intracellular amastigotes SI [7]: 55
O=C(CCl)N(CCCCN(Cc1ccccc1)C(=O)CCl)Cc1ccccc1 [compound 8] | 3.91 ± 0.01 | 6.4 | 0.02 ± 0.004 | 25.1 ± 0.35 | > 250 | – | activity on L. (L.) infantum promastigotes, in words [1]: active; activity on T. cruzi epimastigotes, in words (T. cruzi epimastigotes): active; CC90 at 72 h [2]: > 208 µM; toxicity on THP-1 cells, in words (THP-1 cells): partially toxic
